From patent publication US9326972B2, “Use of phenylmethimazoles, methimazole derivatives, and tautomeric cyclic thiones for the treatment of autoimmune/inflammatory diseases associated with toll-like receptor overexpression” (Ohio University, priority 2004, dated 2016)

What was measured:
Stat1 = Stat1 phosphorylation in Influenza A infected FRTL-5 thyrocytes (Western blot); assay type: cell-based, rat
Description: FIG. 6. Phenylmethimazole (C10) has no effect on the ability of Poly (I:C) or LPS to increase formation of the p50/p65 heterodimer complex of […] (A), but can inhibit the Influenza A induced activation of Stat1 phosphorylation in FRTL-5 thyrocytes (B). In (A), EMSA were performed using nuclear extracts from cells which were treated with nothing (none), Poly (I:C) (100 μg/ml), LPS (100 ng/ml), in the presence of DMSO, C10, or MMI for 6 hours. Probe was the NF-κβ consensus oligonucleotide. The p65/p50 and p50/p50 complexes are indicated and were identified as in FIG. 2B by antibody inhibition or supershifts of the p50 or p65 components of the induced complexes. In (B), cells were infected with Influenza A for 24 hours and then DMSO or C10 were added to the medium for 6 hours. In each, 25 μg of nuclear extracts were used in Western blots performed to detect Stat1 PY701. Blots were then stripped and reprobed for unphosphorylated Stat1. The first lane is a non infected control (−).
Immunoprecipitation and Western Blot Analysis. Whole cell lysates were prepared in lysis buffer (10 mM Tris-HCl (pH 7.5), 150 mM NaCl, 1% NP-40) containing protease inhibitors. Nuclear extracts were prepared using the NE-PER extraction reagents with protease inhibitors stated below (Pierce Chemical Co., Rockford, Ill.). […]

C57BL/6J mice = test: LPS-induced endotoxic shock in C57BL/6J mice: survival and signs of shock; assay type: in vivo, mouse; conditions: for Survival % of Control: Toxic Shock model, 10 animals, 1.5 days
horses = test: LPS-induced endotoxemia and endotoxic shock in horses; assay type: in vivo, horse; conditions: for Dyspnea and Tachypnea / Lung Auscultation / Toxemia and Vascular Congestion / Toxemia, Vascular Congestion, Cyanosis: C10 2 mg/kg iv pretreatment
MHC gene expression = conditions: cited from earlier work
[1] = LPS 20 mg/kg i/p, drug i/p 30 min before LPS, 8 mice per group
[2] = LPS 10 μg/kg, C10 (1 mg/kg) iv pretreatment, time 0.15-6 hours

## Cn1c(-c2ccccc2)cnc1S [Compound C10, 5-Phenylmethimazole]
Stat1; FRTL-5, Influenza A 24 hours then C10 6 hours
  virus- or IFN-β-stimulated Stat1 phosphorylation (PY701): profound inhibitor
Stat1; FRTL-5, Influenza A virus 24 hours, 1 mM C10
  Stat1 serine phosphorylation at residue 727: reduce
C57BL/6J mice; C10 1 mg/kg i/p 30 minutes before LPS 20 mg/kg, 36 hours
  survival / protection from death after LPS injection: 100%
C57BL/6J mice; C10 0.1 to 1 mg/kg administered 30 min to 12 hours after lethal LPS injection
  survival (cases): 100%
C57BL/6J mice; C10-treated LPS mice, as long as observed
  duration of survival observed: ≥ 4 weeks
C57BL/6J mice; C10 daily doses of 0.1 or 1 mg/kg, 12 hours after challenge with LPS
  survival: 100%
C57BL/6J mice; [1]
  Number of surviving mice, 6 hrs: 8
  Number of surviving mice, 12 hrs: 8
C57BL/6J mice; LPS-challenged mice
  Signs of shock at 12 hours, % of Animals: 100 % of Animals
C57BL/6J mice; LPS-induced toxic shock, oral excipient-solubilized C10 stored diluted at 4° C. for 8 weeks, 1 mg/kg
  prevention of death vs freshly made C10 i.p. in DMSO: as effective
C57BL/6J mice; 1 mg/kg, Ip diluted & stored in DMSO 1 wk
  Survival % of Control: 0%
C57BL/6J mice; 1 mg/kg, Ip freshly diluted in DMSO
  Survival % of Control: 100%
C57BL/6J mice; 1 mg/kg, Oral diluted & stored in excipient 6 wks
  Survival % of Control: 100%
C57BL/6J mice; 1 mg/kg, Oral stored in excipient 1 week
  Survival % of Control: 100%
horses; LPS
  symptoms of endotoxemia (hypotension, hypoxemia, collapse, cardiac anoxia, acute renal failure): clearly blocked
horses; LPS 10 μg/kg, 1 week
  Dyspnea and Tachypnea: Normal
  Lung Auscultation: Normal
  Toxemia and Vascular Congestion: Normal
  Toxemia, Vascular Congestion, Cyanosis: Normal
horses; LPS 10 μg/kg, time 0.00 hours
  Dyspnea and Tachypnea: Normal
  Lung Auscultation: Normal
  Toxemia and Vascular Congestion: Normal
  Toxemia, Vascular Congestion, Cyanosis: Normal
horses; LPS 10 μg/kg, time 0.15 hours
  Dyspnea and Tachypnea: Normal
  Toxemia, Vascular Congestion, Cyanosis: Normal
horses; LPS 10 μg/kg, time 0.3 hours
  Dyspnea and Tachypnea: Normal
  Lung Auscultation: Normal
  Toxemia and Vascular Congestion: Weak Congestion
  Toxemia, Vascular Congestion, Cyanosis: Weak Congestion
horses; LPS 10 μg/kg, time 3 hours
  Dyspnea and Tachypnea: Normal
  Lung Auscultation: Normal
  Toxemia and Vascular Congestion: Weak Congestion
  Toxemia, Vascular Congestion, Cyanosis: Weak Congestion
horses; LPS 10 μg/kg, time 24 hours
  Dyspnea and Tachypnea: Normal
  Lung Auscultation: Normal
  Toxemia and Vascular Congestion: Normal
  Toxemia, Vascular Congestion, Cyanosis: Normal
horses; LPS 10 μg/kg, C10 (1 mg/kg) iv pretreatment, 1 week
  abdominal pain, diarrhea, collapse or prostration: normal
horses; LPS 10 μg/kg, C10 (1 mg/kg) iv pretreatment, time 0 hours
  abdominal pain, diarrhea, collapse or prostration: normal
horses; [2]
  abdominal pain, diarrhea, collapse or prostration: Normal
  number of stools: 1 stool
horses; LPS 10 μg/kg, C10 (1 mg/kg) iv pretreatment, time 24 hours
  abdominal pain, diarrhea, collapse or prostration: normal
MHC gene expression
  potency in suppressing MHC gene expression relative to MMI: 50-100 fold
